Experimental data reported in US20170128519A1, “CASPASE INHIBITORS FOR THE TREATMENT OF COLORECTAL CANCER” (Conatus Pharmaceuticals, Inc., priority 2015, published 2017).

Tested on: HT-29 cells
Experiment: crystal violet assay of adherent HT-29 cells after 5-FU treatment
Type: cell-based, human
Method: 5-Fluoruracil (5-FU) was from Sigma Aldrich, Necrostatin-1 was from Enzo Life Sciences. HAT-29 human CRC cell line was obtained from ATCC after cell line authentication utilizing short tandem repeat (STR) profiling. Within four weeks all cell lines were expanded and frozen in aliquots. Cell lines were reauthenticated and regularly tested for contamination as provided by the German Cancer Research Center (DKFZ) Core Facility (Heidelberg). Cells were cultured in RPMI-1640 medium (Biochrom) containing 10% FCS (PAA Laboratories) and 1% penicillin/streptomycin at 5% CO2 and 37° C.
HT-29 cells were incubated with 20 μM IDN-7314 and/or 20 μM Necrostatin (N) for 2 hours prior to treatment with 5-Fluoruracil (5-FU, 50 or 100 mg/ml). After 48 hours, the number of adherent cells was determined via crystal violet assay (RLU=relative light units). […] This effect could be abolished by the RIP1-specific kinase inhibitor, necrostatin, the reduced number of cells is due to induction of necrotic cell death.

Structure (SMILES) | number of adherent cells (crystal violet assay, RLU) (20 μM IDN-7314 for 2 hours prior to 5-FU (50 or 100 mg/ml), read after 48 hours) | sensitization of colon cancer cells to chemotherapy-induced necrotic cell death (FIG. 1) (IDN-7314 with 5-FU) | effect of necrostatin on the reduction of adherent cells by IDN-7314 co-treatment (20 μM Necrostatin with 20 μM IDN-7314 for 2 hours prior to 5-FU (50 or 100 mg/ml), 48 hours)
C[C@H](NC(=O)C(=O)Nc1c(F)cccc1F)C(=O)N[C@@H](CC(=O)O)C(=O)COc1c(F)c(F)cc(F)c1F [IDN-7314] | significantly reduced the number of adherent cells | sensitizes colon cancer cells to chemotherapy-induced necrotic cell death | –
CN1C(=O)C(Cc2c[nH]c3ccccc23)NC1=S (stereo not drawn) [necrostatin, Necrostatin-1, reference compound] | – | – | abolished
